# Measurements from patent US11202795B2, “Means and methods for treatment of early-onset Parkinson's disease” (VIB VZW, priority 2014, dated 2021).
# “Also recorded” adds a separate entry of the source.
# Legend:
# [1] = tested on: control cells (PINK1+/+ MEF and L2134 controls); test: ATP levels of control cells treated with FASN inhibitor; type: cell-based
# Protocol: Cells were treated with 10 μM Cerulenin (0.1% ethanol) or control medium supplemented with 0.1% ethanol. ATP levels were determined as previously described (Morais et al. (2014) Science 344:203-207) using an ATP determination kit (Invitrogen) according to supplier's protocol. Luminescence was measured on a luminometer (Biorad) and values were normalized to total protein content (Bradford method).
# [2] = tested on: fibroblasts from patients carrying mutations in PINK1 (L1703); test: ATP levels of fibroblasts from patients carrying PINK1 mutations; type: cell-based, human; details: patient fibroblasts with PINK1 mutations (L1703), 10 μM Cerulenin vs untreated cells
# Protocol: To directly test if further lowering FASN activity in PINK mutant cells rescues the mitochondrial dysfunction in these cells, ATP levels were tested. […] Thus, the inhibition of FASN with an inhibitor rescues in flies and cells isolated from mice and patients the PINK1-induced mitochondrial defects.
# (§1) Cells were treated with 10 μM Cerulenin (0.1% ethanol) or control medium supplemented with 0.1% ethanol.
# (§2) ATP levels were determined as previously described (Morais et al. (2014) Science 344:203-207) using an ATP determination kit (Invitrogen) according to supplier's protocol. Luminescence was measured on a luminometer (Biorad) and values were normalized to total protein content (Bradford method).
# PINK−/− MEFs = test: Shotgun lipidomics of mitochondrial fractions (cardiolipin levels); type: cell-based, mice; details: compared to control MEFs
# Source text: Nonetheless, when FASN activity was lowered further in PINK1^−/− mutants, either by genetic or by pharmacological inhibition, the palmitate levels drop further. […] Only unsaturated phosphatidylglycerol (PG) is a good substrate for CL synthase (Bobyleva et al. (1997) Biochem. Mol. Biol. Int. 41:469-480) and high levels of palmitate shift the balance toward more saturated PG (Ostrander et al. (2001) J. Biol. Chem. 276:38061-38067). Opposite to this, it was confirmed that inhibition of FASN results in more unsaturated PG, while wondering if FASN inhibition results in increased CL levels.
# as §1
# Mitochondria were isolated and resuspended in ammonium bicarbonate buffer. Lipids were extracted and analyzed using shotgun mass spectrometry (lipotype). In short, using Chloroform and Methanol, lipids were extracted via a two-step lipid extraction process. These extracted lipids were then immediately subjected to mass spectrometric analysis. Lipid data were acquired on a hybrid quadrupole/ORBITRAP® mass spectrometer (Q-Exactive, Thermo-Fisher) equipped with an automated nanoflow electrospray ion source (TRIVERSA NANOMATE® Advion) in both positive and negative ion mode. LIPOTYPE® XPLORER® was used to identify lipids on unprocessed mass spectra.
# PINK1−/− MEFs = test: ATP levels of PINK1−/− MEFs treated with FASN inhibitor; type: cell-based, mice; details: 10 μM Cerulenin vs untreated cells
# Protocol: To directly test if further lowering FASN activity in PINK mutant cells rescues the mitochondrial dysfunction in these cells, ATP levels were tested.
# as §1, §2
# PINK1 mutant flies = test: Flight assay of PINK1 mutant flies fed with FAS inhibitor; type: in vivo, Drosophila melanogaster
# Protocol: FASN is a 273 kDa protein that produces palmitate, which is a precursor of fatty acids in a seven-step enzymatic reaction. FASN uses malonyl CoA and acetyl CoA as substrates. Several inhibitors of FASN function exist. Tests were performed to determine whether defective flight in PINK1 mutants could be pharmacologically rescued.
# One-day-old adult flies were placed on molasses medium supplemented with 100 μM Cerulenin (Enzo Life Sciences) or 3 μM Irgasan (Sigma) (2.5% final ethanol concentration) or supplemented with 2.5% ethanol for control medium. […] To determine mitochondrial morphology, embryos were placed on molasses medium supplemented with 100 μM Cerulenin (2.5% final ethanol concentration) or supplemented with 2.5% ethanol for control medium and grown to the third instar larval stage. These third instar larvae were dissected and used for experiments (see below).
# The flight assay was conducted on male flies using batches of five flies each. The flies were placed in an empty vial and gently tapped.
Structure (SMILES),ATP levels [1],ATP levels [2],cardiolipin (CL) levels (PINK−/− MEFs),ATP levels (PINK1−/− MEFs),"flight ability (PINK1 mutant flies; PINK1 mutant flies on food with different concentrations of cerulenin, flight assay every 24 hours)","flight ability (PINK1 mutant flies; PINK1 mutant flies (B9), concentrations between 1-10 μM irgasan in food)"
C/C=C/C/C=C/CCC(=O)[C@H]1O[C@H]1C(N)=O [cerulenin],did not have an effect,elevated ATP levels compared to untreated cells; also recorded: increased levels of ATP,almost completely restored the levels of all the CL species that were assessed back to control levels,elevated ATP levels compared to untreated cells; also recorded: increased levels of ATP,increased flight ability; also recorded: a dose-response effect was observed,
Oc1cc(Cl)ccc1Oc1ccc(Cl)cc1Cl [irgasan],,,,,,clearly enhance the flight ability
